Measurements taken from US20080226758A1, “Lipoxygenase and Cyclooxygenase Inhibition” (priority 2006, published 2008).
pIC50: −log10 of the molar value. Values joined by “and” are separate entries in the source; they are usually repeats but may differ in a detail not shown here. Equal entries are not always repeated.

Assays:
Assay type in all cases: biochemical
15-LO = biological target: T1, 15-LO (Oryctolagus cuniculus, UniProt P12530); test: 15-LO assay (13-HPODE, spectrophotometric); settings: rabbit reticulocytes; 13-HPODE spectrophotometrically
T1 construct: endogenous in cells; host or cells: rabbit reticulocytes
T1 sequence (P12530 1-663): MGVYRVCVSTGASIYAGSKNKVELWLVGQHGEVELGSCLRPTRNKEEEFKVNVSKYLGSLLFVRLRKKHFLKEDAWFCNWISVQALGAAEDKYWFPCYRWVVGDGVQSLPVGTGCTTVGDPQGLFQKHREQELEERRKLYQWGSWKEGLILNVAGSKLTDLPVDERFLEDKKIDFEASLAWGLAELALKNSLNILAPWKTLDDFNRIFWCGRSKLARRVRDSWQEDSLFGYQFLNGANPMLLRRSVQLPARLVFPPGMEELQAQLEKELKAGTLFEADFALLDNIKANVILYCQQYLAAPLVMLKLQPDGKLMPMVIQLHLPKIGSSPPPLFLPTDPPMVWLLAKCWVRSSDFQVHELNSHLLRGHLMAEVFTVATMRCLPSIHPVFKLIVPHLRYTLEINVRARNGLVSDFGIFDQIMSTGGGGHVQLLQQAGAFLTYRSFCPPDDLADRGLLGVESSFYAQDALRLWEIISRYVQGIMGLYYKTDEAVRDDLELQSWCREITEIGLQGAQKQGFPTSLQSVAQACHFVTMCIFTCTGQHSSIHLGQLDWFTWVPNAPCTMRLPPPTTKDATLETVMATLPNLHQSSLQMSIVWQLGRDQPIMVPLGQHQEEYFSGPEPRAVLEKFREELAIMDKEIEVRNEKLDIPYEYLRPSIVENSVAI
Description: (§1) 5-LO and 15-LO assays: Human peripheral blood mononuclear cells (PBMC) cells and rabbits reticulocytes were used in the 5-LO and 15-LO bioassays, and the assays were conducted according to the protocols reported previously, with either linoleic acid or arachidonic acid as substrates. LO activity was measured by quantifying immunodetectable Leukotriene B4 (LTB4) specifically with enzyme immunoassay (EIA) in the 5-LO assay, or monitoring 13-hydroperoxy-9,11-octadecadienoic acid (13-HPODE) spectrophotometrically in the 15-LO assay.
(§2) The results were expressed as either percentage inhibition, or IC50, for test samples and data represent the average ±SD of at least triplicate determinations.

Human recombinant COX-2 = biological target: T2, Human recombinant COX-2 (Homo sapiens, UniProt P35354); test: COX-2 inhibition assay (PGE2 EIA); settings: human recombinant COX-2 expressed in Sf21 cells; 0.3 μM arachidonic acid
T2 construct: purchased Sigma C-0858; host or cells: insect Sf21 cells
T2 sequence (P35354 18-604): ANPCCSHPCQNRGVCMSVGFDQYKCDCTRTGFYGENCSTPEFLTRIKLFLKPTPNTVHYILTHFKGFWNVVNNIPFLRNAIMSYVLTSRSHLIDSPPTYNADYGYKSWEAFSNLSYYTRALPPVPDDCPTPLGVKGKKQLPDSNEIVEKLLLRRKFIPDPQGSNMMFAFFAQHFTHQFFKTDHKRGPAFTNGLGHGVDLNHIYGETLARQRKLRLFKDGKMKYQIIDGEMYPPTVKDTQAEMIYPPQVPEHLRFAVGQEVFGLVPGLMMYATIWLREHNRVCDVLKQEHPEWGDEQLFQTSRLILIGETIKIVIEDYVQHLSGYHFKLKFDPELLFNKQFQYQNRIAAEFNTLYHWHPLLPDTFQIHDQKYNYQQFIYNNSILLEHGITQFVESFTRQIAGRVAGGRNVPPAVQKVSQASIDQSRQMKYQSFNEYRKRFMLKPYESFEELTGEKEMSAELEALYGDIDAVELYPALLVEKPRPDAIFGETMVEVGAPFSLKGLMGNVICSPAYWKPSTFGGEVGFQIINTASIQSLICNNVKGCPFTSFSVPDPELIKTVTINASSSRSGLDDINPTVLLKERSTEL
Description: COX-1 and COX-2 assays: COX-1 and -2 Inhibition assays were performed by the methods described previously with minor modifications. COX-2 enzyme was purchased from Sigma (Catalog # C-0858), and the PGE2 EIA kit from Amersham (Catalog # RPN 220). Human recombinant COX-2, expressed in insect Sf21 cells, and human platelets, respectively, were used in the COX-2 and COX-1 assays. The extract and partitions were dissolved in DMSO (Sigma, USA), and tested at 100 μg/mL (final concentration). The pure compounds were initially tested at 30 μM. […] Test samples were preincubated with 0.12 μg/ml enzyme in modified Tris-HCl buffer pH 7.7 (COX-2), and with cells (5×10^7/ml), in modified HEPES buffer pH 7.4 (COX-1) for 15 minutes at 37° C. The reactions were initiated by addition of 0.3 μM arachidonic acid (COX-2), and 100 μM arachidonic acid (COX-1), respectively, for another 5-minute incubation period, then terminated by further addition of 1 N HCl. An aliquot was then combined with the EIA kit for spectrophotometric determination of the quantity of PGE2 formed.
as §2

5-LO = biological target: T3, 5-LO (Homo sapiens, UniProt P09917); test: 5-LO assay (LTB4 by EIA); settings: human PBMC
T3 construct: endogenous in cells; host or cells: human peripheral blood mononuclear cells (PBMC)
T3 sequence (P09917 1-674): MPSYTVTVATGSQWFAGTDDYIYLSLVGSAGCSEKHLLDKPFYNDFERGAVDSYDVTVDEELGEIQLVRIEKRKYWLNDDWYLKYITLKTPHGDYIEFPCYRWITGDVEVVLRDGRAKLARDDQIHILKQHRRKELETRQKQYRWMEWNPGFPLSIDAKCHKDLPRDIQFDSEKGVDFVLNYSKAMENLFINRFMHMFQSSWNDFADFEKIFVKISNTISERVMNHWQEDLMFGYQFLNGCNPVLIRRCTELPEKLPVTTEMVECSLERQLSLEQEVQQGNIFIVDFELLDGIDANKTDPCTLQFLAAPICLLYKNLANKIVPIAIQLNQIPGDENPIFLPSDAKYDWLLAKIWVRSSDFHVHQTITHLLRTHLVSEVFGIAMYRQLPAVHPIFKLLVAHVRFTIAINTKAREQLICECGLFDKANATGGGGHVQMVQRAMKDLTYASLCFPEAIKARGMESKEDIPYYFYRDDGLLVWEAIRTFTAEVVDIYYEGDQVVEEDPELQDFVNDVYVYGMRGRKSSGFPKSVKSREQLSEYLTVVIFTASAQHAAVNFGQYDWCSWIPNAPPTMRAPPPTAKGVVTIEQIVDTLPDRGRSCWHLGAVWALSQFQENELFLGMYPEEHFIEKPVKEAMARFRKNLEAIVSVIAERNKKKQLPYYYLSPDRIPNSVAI
Description: as §1, §2

For `Oc1ccc(C2OCC3C(c4ccc(O)c(O)c4)OCC23)cc1O` (stereo not drawn) [compound 4, 3,3′-bisdemethylpinoresinol], the pIC50 (15-LO) was 6.28 and the pIC50 (Human recombinant COX-2) was < 4.00.

For `O=c1c(O)c(-c2ccc(O)cc2)oc2cc(O)cc(O)c12` [compound 6, kaempferol], the pIC50 (15-LO) was 5.66 and the pIC50 (5-LO) was 4.86 to 5.58 and 5.57.

In the case of `O=c1c(O)c(-c2ccc(O)c(O)c2)oc2cc(O)cc(O)c12` [compound 5, quercetin], the pIC50 (15-LO) was 6.37 and the pIC50 (Human recombinant COX-2) was 4.54.

With `COc1cc2ccc(=O)oc2cc1O` [compound 7, scopoletin] the pIC50 (15-LO) was 4.78.

`OCC1C(c2ccc(O)c(O)c2)OCC1C(O)c1ccc(O)c(O)c1` (single isomer, unassigned; (+)) [compound 2, (+)-3,3′-bisdemethyltanegool] was tested, and the pIC50 (15-LO) was 6.12 and the pIC50 (Human recombinant COX-2) was 4.13.

`O=C1OC(c2ccc(O)c(O)c2)C2COC(c3ccc(O)c(O)c3)C12` (single isomer, unassigned; (+)) [compound 1, (+)-3,4,3′,4′-tetrahydroxy-9,7′α-epoxylignano-7α,9′-lactone] gave a pIC50 (15-LO) of 6.28 and a pIC50 (Human recombinant COX-2) of 4.04.

With `COc1cc2oc(=O)ccc2cc1O` [compound 8, isoscopoletin] the pIC50 (15-LO) was 4.82.
